Consider 26 compounds from patent US10023570B2 (Array BioPharma, Inc., priority 2015, dated 2018).

The assay concerns the target human KDR protein in HEK-293 cells (Homo sapiens (Human), UniProt P35968). Briefly: KDR Cell Assay (phospho-KDR in HEK-293 cells expressing inducible KDR). The settings on record: pKDR Cell HEK 10% FBS IC50, HEK-293 cells expressing inducible KDR, VEGF stimulated. It counts as cell-based. Here is the method: The cellular potency of a compound inhibiting KDR kinase was determined in HEK-293 cells expressing an inducible human KDR protein. […] The cells were incubated for 1 hour with test compound in DMEM at a final DMSO concentration of 0.25%. […] The media was aspirated and 35 μL of a 1× lysis buffer was added. […] The lysate was stored at −80° C. until ready for assay. Phospho-KDR was measured using a phospho-KDR kit (Catalog #K151BOC) purchased from Meso Scale Diagnostics (Rockville, Md.) according to the manufacturer's instructions. All values are expressed as percent of percent of control (POC). The POC values were fitted to a 4 parameter logistic curve fit and the IC50 value is point where the curve crosses 50 POC.

Structures are written as SMILES. Structures can show the parent of a compound that is named as a salt.

human KDR protein in HEK-293 cells, sequence (P35968 20-1356): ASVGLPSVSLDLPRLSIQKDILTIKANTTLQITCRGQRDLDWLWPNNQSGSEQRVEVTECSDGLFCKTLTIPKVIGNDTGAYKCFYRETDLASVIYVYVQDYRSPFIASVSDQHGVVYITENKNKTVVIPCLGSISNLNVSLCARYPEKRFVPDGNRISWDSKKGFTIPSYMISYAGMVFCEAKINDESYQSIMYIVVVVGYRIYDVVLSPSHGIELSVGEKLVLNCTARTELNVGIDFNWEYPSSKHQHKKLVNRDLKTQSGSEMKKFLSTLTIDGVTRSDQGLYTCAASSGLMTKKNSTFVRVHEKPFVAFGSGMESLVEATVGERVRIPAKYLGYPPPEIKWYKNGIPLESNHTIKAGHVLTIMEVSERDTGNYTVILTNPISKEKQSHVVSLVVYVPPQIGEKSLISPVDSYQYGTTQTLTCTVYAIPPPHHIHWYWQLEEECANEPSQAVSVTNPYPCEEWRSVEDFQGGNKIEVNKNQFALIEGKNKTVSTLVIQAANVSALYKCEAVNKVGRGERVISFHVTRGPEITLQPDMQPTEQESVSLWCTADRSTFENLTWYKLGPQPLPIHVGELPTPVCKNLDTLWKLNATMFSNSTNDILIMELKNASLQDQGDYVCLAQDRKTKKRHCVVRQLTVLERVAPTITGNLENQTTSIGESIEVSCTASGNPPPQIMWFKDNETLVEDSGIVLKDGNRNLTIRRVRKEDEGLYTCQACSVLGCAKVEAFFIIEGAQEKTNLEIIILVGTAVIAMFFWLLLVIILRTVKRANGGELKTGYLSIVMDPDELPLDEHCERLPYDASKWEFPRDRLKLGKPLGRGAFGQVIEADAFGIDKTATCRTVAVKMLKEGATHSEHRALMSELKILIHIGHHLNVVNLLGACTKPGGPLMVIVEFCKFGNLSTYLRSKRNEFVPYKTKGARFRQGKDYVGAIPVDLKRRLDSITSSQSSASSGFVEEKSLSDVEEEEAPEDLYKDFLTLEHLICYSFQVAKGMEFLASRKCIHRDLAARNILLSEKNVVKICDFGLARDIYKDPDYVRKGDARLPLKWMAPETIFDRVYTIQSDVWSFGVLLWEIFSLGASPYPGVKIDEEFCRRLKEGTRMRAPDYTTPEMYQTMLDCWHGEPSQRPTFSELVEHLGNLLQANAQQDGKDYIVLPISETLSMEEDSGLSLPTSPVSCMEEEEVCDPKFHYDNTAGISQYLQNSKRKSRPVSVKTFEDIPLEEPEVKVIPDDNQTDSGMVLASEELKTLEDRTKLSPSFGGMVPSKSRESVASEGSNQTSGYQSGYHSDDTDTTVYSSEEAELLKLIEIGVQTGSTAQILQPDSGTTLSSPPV

In general, IC50 refers to the concentration that gives 50% inhibition. A lower IC50 goes with greater potency. The compound `Cn1cc(-c2cc(-c3ccc(N4CCN(C(=O)[C@@H](O)c5ccccc5)CC4)nc3)c3c(C#N)cnn3c2)cn1` [Example 6, (S)-4-(6-(4-(2-hydroxy-2-phenylacetyl)piperazin-1-yl)pyridin-3-yl)-6-(1-methyl-1H-pyrazol-4-yl)pyrazolo[1,5-a]pyridine-3-carbonitrile] gave an IC50 (10% FBS) of 115 nM.

`Cn1cc(-c2cc(-c3ccc(N4CC5(CN(C(=O)OC(C)(C)C)C5)C4)nc3)c3c(C#N)cnn3c2)cn1` [Example 526, tert-butyl 6-(5-(3-cyano-6-(1-methyl-1H-pyrazol-4-yl)pyrazolo[1,5-a]pyridin-4-yl)pyridin-2-yl)-2,6-diazaspiro[3.3]heptane-2-carboxylate] returned an IC50 of at least 5000 nM.

For the compound `Cn1cc(-c2cc(-c3ccc(N4CCN(C(=O)[C@H](O)c5ccccc5)CC4)nc3)c3ccnn3c2)cn1` [Example 313, (R)-2-hydroxy-1-(4-(5-(6-(1-methyl-1H-pyrazol-4-yl)pyrazolo[1,5-a]pyridin-4-yl)pyridin-2-yl)piperazin-1-yl)-2-phenylethanone], the IC50 (10% FBS) is at least 5000 nM.

Turning to `Cn1cc(-c2cc(-c3ccc(N4CCN(C(=O)C[C@@H](O)c5ccccc5)CC4)nc3)c3c(C#N)cnn3c2)cn1` [Example 7, (R)-4-(6-(4-(3-hydroxy-3-phenylpropanoyl)piperazin-1-yl)pyridin-3-yl)-6-(1-methyl-1H-pyrazol-4-yl)pyrazolo[1,5-a]pyridine-3-carbonitrile], the IC50 (10% FBS) is 115 nM.

For `Cn1cc(-c2cc(-c3ccc(N4CCN(CC(F)F)CC4)nc3)c3c(C#N)cnn3c2)cn1` [Example 418, 4-(6-(4-(2,2-difluoroethyl)piperazin-1-yl)pyridin-3-yl)-6-(1-methyl-1H-pyrazol-4-yl)pyrazolo[1,5-a]pyridine-3-carbonitrile], half-maximal inhibition (IC50) was put at 1510 nM.

Consider `COCC(=O)N1CCN(c2ccc(-c3cc(-c4cnn(C)c4)cn4ncc(C#N)c34)cc2)CC1` [Example 292, 4-(4-(4-(2-methoxyacetyl)piperazin-1-yl)phenyl)-6-(1-methyl-1H-pyrazol-4-yl)pyrazolo[1,5-a]pyridine-3-carbonitrile], for which the IC50 (10% FBS) is 1080 nM.

Compound `C[C@H](O)Cn1cc(-c2cc(-c3ccc(N4CCN(C(=O)CC(C)(C)C)CC4)cc3)c3c(C#N)cnn3c2)cn1` [Example 304, (S)-4-(4-(4-(3,3-dimethylbutanoyl)piperazin-1-yl)phenyl)-6-(1-(2-hydroxypropyl)-1H-pyrazol-4-yl)pyrazolo[1,5-a]pyridine-3-carbonitrile] registered an IC50 (10% FBS) of 1610 nM.

With `CN(C)CC(=O)N1CC2(CCN(c3ccc(-c4cc(-c5cnn(C)c5)cn5ncc(C#N)c45)cn3)CC2)C1` [Example 494, 4-(6-(2-(2-(dimethylamino)acetyl)-2,7-diazaspiro[3.5]nonan-7-yl)pyridin-3-yl)-6-(1-methyl-1H-pyrazol-4-yl)pyrazolo[1,5-a]pyridine-3-carbonitrile], inhibition was half-maximal at 1830 nM (IC50).

In the case of `Cn1cc(-c2cc(-c3ccc(N4CCN(C(=O)C(c5ccccc5)N5CCOCC5)CC4)nc3)c3c(C#N)cnn3c2)cn1` (centres unmarked) [Example 363, 6-(1-methyl-1H-pyrazol-4-yl)-4-(6-(4-(2-morpholino-2-phenylacetyl)piperazin-1-yl)pyridin-3-yl)pyrazolo[1,5-a]pyridine-3-carbonitrile bis(2,2,2-trifluoroacetate)], the IC50 (10% FBS) is 2640 nM.

For `Cn1cc(-c2cc(-c3ccc(N4CCC5(CCOC5)C4)nc3)c3c(C#N)cnn3c2)cn1` (centres unmarked) [Example 530, 4-(6-(2-oxa-7-azaspiro[4.4]nonan-7-yl)pyridin-3-yl)-6-(1-methyl-1H-pyrazol-4-yl)pyrazolo[1,5-a]pyridine-3-carbonitrile 2,2,2-trifluoroacetate], the IC50 was 1540 nM.

Compound `Cn1cc(-c2cc(-c3ccc(N4CCN(C(=O)C5CCOCC5)CC4)nc3)c3c(C#N)cnn3c2)cn1` [Example 74, 6-(1-methyl-1H-pyrazol-4-yl)-4-(6-(4-(tetrahydro-2H-pyran-4-carbonyl)piperazin-1-yl)pyridin-3-yl)pyrazolo[1,5-a]pyridine-3-carbonitrile] returned an IC50 (10% FBS) of 1350 nM.

Under “10% FBS”, `Cn1cc(-c2cc(-c3ccc(N4CCN(C(=O)OC(C)(C)C)CC4)cc3)c3c(C#N)cnn3c2)cn1` [Example 290, tert-Butyl 4-(4-(3-cyano-6-(1-methyl-1H-pyrazol-4-yl)pyrazolo[1,5-a]pyridin-4-yl)phenyl)piperazine-1-carboxylate] returned an IC50 of 3440 nM.

`Cn1cc(-c2cc(-c3ccc(N4CCN(C(=O)Cc5ccnn5C)CC4)nc3)c3c(C#N)cnn3c2)cn1` [Example 20, 6-(1-methyl-1H-pyrazol-4-yl)-4-(6-(4-(2-(1-methyl-1H-pyrazol-5-yl)acetyl)piperazin-1-yl)pyridin-3-yl)pyrazolo[1,5-a]pyridine-3-carbonitrile] registered an IC50 (10% FBS) of 1650 nM.

For the compound `Cn1cc(-c2cc(-c3ccc(N4CCC5(CC4)CC(NC(=O)OC(C)(C)C)C5)nc3)c3c(C#N)cnn3c2)cn1` [Example 516, tert-butyl (7-(5-(3-cyano-6-(1-methyl-1H-pyrazol-4-yl)pyrazolo[1,5-a]pyridin-4-yl)pyridin-2-yl)-7-azaspiro[3.5]nonan-2-yl)carbamate], it took 173 nM to reach half-maximal inhibition (IC50). In other words, the sub-micromolar range.

`CC(C)O[C@H]1CCN(C(=O)N2CCN(c3ccc(-c4cc(-c5cnn(C)c5)cn5ncc(C#N)c45)cn3)CC2)C1` [Example 108, (S)-4-(6-(4-(3-isopropoxypyrrolidine-1-carbonyl)piperazin-1-yl)pyridin-3-yl)-6-(1-methyl-1H-pyrazol-4-yl)pyrazolo[1,5-a]pyridine-3-carbonitrile] gave an IC50 (10% FBS) of 531 nM.

For the compound `Cc1nn(C)cc1C(=O)N1CCN(c2ccc(-c3cc(-c4cnn(C)c4)cn4ncc(C#N)c34)cn2)CC1` [Example 41, 4-(6-(4-(1,3-dimethyl-1H-pyrazole-4-carbonyl)piperazin-1-yl)pyridin-3-yl)-6-(1-methyl-1H-pyrazol-4-yl)pyrazolo[1,5-a]pyridine-3-carbonitrile 2,2,2-trifluoroacetate], the midpoint of inhibition (10% FBS), the IC50, lay at 871 nM.

With `Cn1cc(-c2cc(-c3ccc(N4CCN(S(C)(=O)=O)CC4)nc3)c3c(C#N)cnn3c2)cn1` [Example 88, 6-(1-methyl-1H-pyrazol-4-yl)-4-(6-(4-(methylsulfonyl)piperazin-1-yl)pyridin-3-yl)pyrazolo[1,5-a]pyridine-3-carbonitrile], inhibition (10% FBS) was half-maximal at 195 nM (IC50).

`COc1cccc(CN2CCN(c3ccc(-c4cc(-c5cnn(C)c5)cn5ncc(C#N)c45)cn3)CC2)c1` [Example 450, 4-(6-(4-(3-methoxybenzyl)piperazin-1-yl)pyridin-3-yl)-6-(1-methyl-1H-pyrazol-4-yl)pyrazolo[1,5-a]pyridine-3-carbonitrile] yielded an IC50 of 467 nM.

Regarding `CC(C)[C@@H](O)C(=O)N1CCC2(CCN(c3ccc(-c4cc(-c5cnn(C)c5)cn5ncc(C#N)c45)cn3)CC2)C1` [Example 206, (R)-4-(6-(2-(2-hydroxy-3-methylbutanoyl)-2,8-diazaspiro[4.5]decan-8-yl)pyridin-3-yl)-6-(1-methyl-1H-pyrazol-4-yl)pyrazolo[1,5-a]pyridine-3-carbonitrile], the IC50 (10% FBS) is 1200 nM.

As for `Cn1cc(-c2cc(-c3ccc(N4CCN(C5CCOC5)CC4)nc3)c3c(C#N)cnn3c2)cn1` (centres unmarked) [Example 505, 6-(1-methyl-1H-pyrazol-4-yl)-4-(6-(4-(tetrahydrofuran-3-yl)piperazin-1-yl)pyridin-3-yl)pyrazolo[1,5-a]pyridine-3-carbonitrile bis(2,2,2-trifluoroacetate)], the IC50 was determined as 1300 nM.

Take `Cn1cc(-c2cc(-c3ccc(N4CCCC5(CCCN5)C4)nc3)c3c(C#N)cnn3c2)cn1` (centres unmarked) [Example 542, 4-(6-(1,7-diazaspiro[4.5]decan-7-yl)pyridin-3-yl)-6-(1-methyl-1H-pyrazol-4-yl)pyrazolo[1,5-a]pyridine-3-carbonitrile dihydrochloride]: half-maximal inhibition (IC50) required 222 nM.

In turn, `Cn1cc(-c2cc(-c3ccc(N4CCN(C(=O)Cc5c(F)cccc5F)CC4)nc3)c3c(C#N)cnn3c2)cn1` [Example 39, 4-(6-(4-(2-(2,6-difluorophenyl)acetyl)piperazin-1-yl)pyridin-3-yl)-6-(1-methyl-1H-pyrazol-4-yl)pyrazolo[1,5-a]pyridine-3-carbonitrile 2,2,2-trifluoroacetate] gave an IC50 (10% FBS) of 83.9 nM.

As for `Cn1cc(-c2cc(-c3ccc(N4CCN(C(=O)C5(C#N)CC5)CC4)nc3)c3c(C#N)cnn3c2)cn1` [Example 348, 4-(6-(4-(1-cyanocyclopropane-carbonyl)piperazin-1-yl)pyridin-3-yl)-6-(1-methyl-1H-pyrazol-4-yl)pyrazolo[1,5-a]pyridine-3-carbonitrile], for the setting “10% FBS”, the IC50 amounted to 1410 nM.

`COc1ccc(N(C)C(=O)N2CCN(c3ccc(-c4cc(-c5cnn(C)c5)cn5ncc(C#N)c45)cn3)CC2)cc1` [Example 383, 4-(5-(3-cyano-6-(1-methyl-1H-pyrazol-4-yl)pyrazolo[1,5-a]pyridine-4-yl)pyridin-2-yl)-N-(4-methoxyphenyl)-N-methylpiperazine-1-carboxamide]: the IC50 was determined as 639 nM. That is a sub-micromolar value.

As for `CC(C)CC(=O)N1CCN(c2ccc(-c3cc(-c4ccn(C)n4)cn4ncc(C#N)c34)cn2)CC1` [Example 273, 6-(1-methyl-1H-pyrazol-3-yl)-4-(6-(4-(3-methylbutanoyl)piperazin-1-yl)pyridin-3-yl)pyrazolo[1,5-a]pyridine-3-carbonitrile], it took 2140 nM to reach half-maximal inhibition (10% FBS) (IC50).

In turn, `Cc1c(CN2CCN(c3ccc(-c4cc(-c5cnn(C)c5)cn5ncc(C#N)c45)cn3)CC2)cnn1C` [Example 435, 4-(6-(4-((1,5-dimethyl-1H-pyrazol-4-yl)methyl)piperazin-1-yl)pyridin-3-yl)-6-(1-methyl-1H-pyrazol-4-yl)pyrazolo[1,5-a]pyridine-3-carbonitrile] registered an IC50 of 1330 nM. In other words, the single-digit micromolar range.
